Measured values reported in PMC12028158, “Synthesis and In Vitro Evaluation of the Anticancer Effect of Novel Phosphonium Vindoline Derivatives” (International Journal of Molecular Sciences, 2025).
Read-outs that look alike come from different tables or passages of the source.

How the values were obtained:
Format in all cases: cell-based
HS 578T = assay: NCI60 one-dose screen; conditions: Homo sapiens, Hs-578T, read-out: Growth percent
LOX IMVI = assay: NCI60 one-dose screen; conditions: Homo sapiens, read-out: Growth percent
SF-539 = assay: NCI60 one-dose screen; conditions: Homo sapiens, SF-539, read-out: Growth percent
CNS Cancer panel = assay: NCI60 five-dose screen, panel mean; conditions: Homo sapiens
SK-MEL-2 = assay: NCI60 one-dose screen; conditions: Homo sapiens, SK-MEL-2, read-out: Growth percent
[1] = system: 60 human tumor cell lines (NCI60); assay: NCI60 one-dose screen, overall mean; conditions: for activity at 10 µM: Homo sapiens, 60 cell, read-out: Mean growth percent
A549/ATCC = assay: NCI60 five-dose screen; conditions: Homo sapiens, A549
SNB-19 = assay: NCI60 one-dose screen; conditions: Homo sapiens, SNB-19, read-out: Growth percent
HOP-62 = assay: NCI60 five-dose screen; conditions: Homo sapiens, HOP-62
KM12 = assay: NCI60 five-dose screen; conditions: Homo sapiens, KM12
MALME-3M [2] = assay: NCI60 one-dose screen; conditions: Homo sapiens, Malme-3M, read-out: Growth percent
MDA-MB-468 = assay: NCI60 five-dose screen; conditions: Homo sapiens, MDA-MB-468
ACHN [3] = assay: NCI60 five-dose screen; conditions: Homo sapiens
CCRF-CEM [4] = assay: NCI60 one-dose screen; conditions: Homo sapiens, read-out: Growth percent
SK-MEL-5 = assay: NCI60 one-dose screen; conditions: Homo sapiens, SK-MEL-5, read-out: Growth percent
U251 = assay: NCI60 five-dose screen; conditions: Homo sapiens, U-251
CCRF-CEM [5] = assay: NCI60 five-dose screen; conditions: Homo sapiens
SW-620 = assay: NCI60 five-dose screen; conditions: Homo sapiens, SW-620
HL-60(TB) = assay: NCI60 five-dose screen; conditions: Homo sapiens, HL-60
MDA-MB-435 [6] = assay: NCI60 one-dose screen; conditions: Homo sapiens, MDA-MB-435, read-out: Growth percent
Breast Cancer panel = assay: NCI60 five-dose screen, panel mean; conditions: Homo sapiens
T-47D = assay: NCI60 five-dose screen; conditions: Homo sapiens, T47D
HOP-92 = assay: NCI60 five-dose screen; conditions: Homo sapiens, HOP-92
HCC-2998 = assay: NCI60 five-dose screen; conditions: Homo sapiens, HCC 2998
TK-10 = assay: NCI60 five-dose screen; conditions: Homo sapiens, TK-10
NCI-H522 = assay: NCI60 five-dose screen; conditions: Homo sapiens, NCI-H522
HT29 = assay: NCI60 one-dose screen; conditions: Homo sapiens, HT-29, read-out: Growth percent
COLO 205 [7] = assay: NCI60 five-dose screen; conditions: Homo sapiens, COLO 205
DU-145 = assay: NCI60 one-dose screen; conditions: Homo sapiens, DU-145, read-out: Growth percent
ACHN [8] = assay: NCI60 one-dose screen; conditions: Homo sapiens, read-out: Growth percent
SF-295 = assay: NCI60 five-dose screen; conditions: Homo sapiens, SF-295
NCI-H460 = assay: NCI60 one-dose screen; conditions: Homo sapiens, NCI-H460, read-out: Growth percent
SF-268 [9] = assay: NCI60 five-dose screen; conditions: Homo sapiens, SF-268
COLO 205 [10] = assay: NCI60 one-dose screen; conditions: Homo sapiens, COLO 205, read-out: Growth percent
SN12C = assay: NCI60 five-dose screen; conditions: Homo sapiens
MDA-MB-435 [11] = assay: NCI60 five-dose screen; conditions: Homo sapiens, MDA-MB-435
A498 = assay: NCI60 five-dose screen; conditions: Homo sapiens, A498
EKVX [12] = assay: NCI60 five-dose screen; conditions: Homo sapiens
OVCAR-3 = assay: NCI60 five-dose screen; conditions: Homo sapiens, OVCAR-3
IGROV1 [13] = assay: NCI60 five-dose screen; conditions: Homo sapiens, IGROV-1
OVCAR-4 = assay: NCI60 five-dose screen; conditions: Homo sapiens, OVCAR-4
RPMI-8226 = assay: NCI60 five-dose screen; conditions: Homo sapiens, RPMI-8226
MALME-3M [14] = assay: NCI60 five-dose screen; conditions: Homo sapiens, Malme-3M
SF-268 [15] = assay: NCI60 one-dose screen; conditions: Homo sapiens, SF-268, read-out: Growth percent
NCI-H23 = assay: NCI60 one-dose screen; conditions: Homo sapiens, NCI-H23, read-out: Growth percent
IGROV1 [16] = assay: NCI60 one-dose screen; conditions: Homo sapiens, IGROV-1, read-out: Growth percent
EKVX [17] = assay: NCI60 one-dose screen; conditions: Homo sapiens, read-out: Growth percent

With `CC[C@]12C=CCN3CC[C@@]4(c5ccc(OC)cc5N(C)[C@H]4[C@@](O)(C(=O)OC)[C@@H]1OC(=O)CCCC[P+](C1CCCCC1)(C1CCCCC1)C1CCCCC1)[C@@H]32` [10d] the activity at 10 µM (HS 578T) was -35%, the activity at 10 µM (LOX IMVI) was -96.1% and the activity at 10 µM (SF-539) was -93.9%. It also gave a GI50 (CNS Cancer panel; read-out: GI50 Mean) of 2600 nM, an activity at 10 µM (SK-MEL-2) of -88% and an activity at 10 µM [1] of -36.6%. The GI50 (A549/ATCC) was 3130 nM, the activity at 10 µM (SNB-19) was -71.1% and the GI50 (HOP-62) was 3900 nM. The GI50 (KM12) was 1720 nM, the activity at 10 µM (MALME-3M [2]) was -95.9% and the GI50 (MDA-MB-468) was 378 nM. For the same compound, the GI50 (ACHN [3]) was 16000 nM, the activity at 10 µM (CCRF-CEM [4]) was -60.2% and the activity at 10 µM (SK-MEL-5) was -96.2%. The GI50 (U251) was 640 nM, the GI50 (CCRF-CEM [5]) was 2550 nM and the GI50 (SW-620) was 2750 nM. The GI50 (HL-60(TB)) was 293 nM, the activity at 10 µM (MDA-MB-435 [6]) was -90.5% and the GI50 (Breast Cancer panel; read-out: GI50 Mean) was 1480 nM. The GI50 (T-47D) was 920 nM, the GI50 (HOP-92) was 1020 nM and the GI50 (HCC-2998) was 1310 nM. It also gave a GI50 (TK-10) of 3080 nM, a GI50 (NCI-H522) of 642 nM and an activity at 10 µM (HT29) of -24%. The GI50 (COLO 205 [7]) was 377 nM, the activity at 10 µM (DU-145) was 9.57% and the activity at 10 µM (ACHN [8]) was 18.7%. It also gave a GI50 (SF-295) of 4400 nM, an activity at 10 µM (NCI-H460) of 5.27% and a GI50 (SF-268 [9]) of 3170 nM. The activity at 10 µM (COLO 205 [10]) was -76.6%, the GI50 (SN12C) was 2770 nM and the GI50 (MDA-MB-435 [11]) was 2620 nM. The GI50 (A498) was 13300 nM, the GI50 (EKVX [12]) was 3130 nM and the GI50 (OVCAR-3) was 1930 nM. It also gave a GI50 (IGROV1 [13]) of 1360 nM, a GI50 (OVCAR-4) of 2720 nM and a GI50 (RPMI-8226) of 412 nM. It also gave a GI50 (MALME-3M [14]) of 1630 nM, an activity at 10 µM (SF-268 [15]) of -70.5% and an activity at 10 µM (NCI-H23) of -9.66%. The activity at 10 µM (IGROV1 [16]) was -84.7% and the activity at 10 µM (EKVX [17]) was 13.2%.
In the case of `CC[C@]12C=CCN3CC[C@@]4(c5ccc(OC)cc5N(C)[C@H]4[C@@](O)(C(=O)OC)[C@@H]1OC(=O)CCCC[P+](c1ccc(C)cc1)(c1ccc(C)cc1)c1ccc(C)cc1)[C@@H]32` [10a], the activity at 10 µM (HS 578T) is reported as -69.9%, the activity at 10 µM (LOX IMVI) is reported as -94.5% and the activity at 10 µM (SF-539) is reported as -98.7%. It also gave a GI50 (CNS Cancer panel; read-out: GI50 Mean) of 1090 nM, an activity at 10 µM (SK-MEL-2) of -87.2% and an activity at 10 µM [1] of -78.7%. The “average reduction / average cell death” value ([1]; one-dose, 10 µM, average over cell lines) was “more than 70%”, the GI50 (A549/ATCC) was 819 nM and the activity at 10 µM (SNB-19) was -96.5%. The GI50 (HOP-62) was 1370 nM, the GI50 (KM12) was 596 nM and the activity at 10 µM (MALME-3M [2]) was -96%. For the same compound, the GI50 (MDA-MB-468) was 264 nM, the GI50 (ACHN [3]) was 2540 nM and the activity at 10 µM (CCRF-CEM [4]) was -72.4%. The activity at 10 µM (SK-MEL-5) was -98.5%, the GI50 (U251) was 470 nM and the GI50 (CCRF-CEM [5]) was 768 nM. For the same compound, the GI50 (SW-620) was 761 nM, the GI50 (HL-60(TB)) was 221 nM and the activity at 10 µM (MDA-MB-435 [6]) was -86.8%. For the same compound, the GI50 (Breast Cancer panel; read-out: GI50 Mean) was 580 nM, the GI50 (T-47D) was 370 nM and the GI50 (HOP-92) was 490 nM. The GI50 (HCC-2998) was 520 nM, the GI50 (TK-10) was 1490 nM and the GI50 (NCI-H522) was 306 nM. For the same compound, the activity at 10 µM (HT29) was -81.8%, the GI50 (COLO 205 [7]) was 200 nM and the activity at 10 µM (DU-145) was -84.5%. For the same compound, the activity at 10 µM (ACHN [8]) was -99.3%, the GI50 (SF-295) was 1620 nM and the activity at 10 µM (NCI-H460) was -86.6%. It also gave a GI50 (SF-268 [9]) of 1170 nM, an activity at 10 µM (COLO 205 [10]) of -64.1% and a GI50 (SN12C) of 619 nM. For the same compound, the GI50 (MDA-MB-435 [11]) was 678 nM, the GI50 (A498) was 2170 nM and the GI50 (EKVX [12]) was 1050 nM. For the same compound, the GI50 (OVCAR-3) was 604 nM, the GI50 (IGROV1 [13]) was 479 nM and the GI50 (OVCAR-4) was 1090 nM. The GI50 (RPMI-8226) was 283 nM, the GI50 (MALME-3M [14]) was 1170 nM and the activity at 10 µM (SF-268 [15]) was -61.1%. It also gave an activity at 10 µM (NCI-H23) of -92.4%, an activity at 10 µM (IGROV1 [16]) of -91.8% and an activity at 10 µM (EKVX [17]) of -93.8%.
`CC[C@]12C=CCN3CC[C@@]4(c5ccc(OC)cc5N(C)[C@H]4[C@@](O)(C(=O)OC)[C@@H]1OC(=O)CCC[P+](c1ccccc1)(c1ccccc1)c1ccccc1OC)[C@@H]32` [9f] gave an activity at 10 µM (HS 578T) of -47.4%, an activity at 10 µM (LOX IMVI) of -95.7% and an activity at 10 µM (SF-539) of -93.8%. The GI50 (CNS Cancer panel; read-out: Mean GI50) was 570 nM, the activity at 10 µM (SK-MEL-2) was -98% and the activity at 10 µM [1] was -45.4%. For the same compound, the GI50 (A549/ATCC) was 945 nM, the activity at 10 µM (SNB-19) was -95.2% and the GI50 (HOP-62) was 2160 nM. The GI50 (KM12) was 331 nM, the activity at 10 µM (MALME-3M [2]) was -96.7% and the GI50 (MDA-MB-468) was 129 nM. For the same compound, the GI50 (ACHN [3]) was 4580 nM, the activity at 10 µM (CCRF-CEM [4]) was 0.92% and the activity at 10 µM (SK-MEL-5) was -98.4%. The GI50 (U251) was 248 nM, the GI50 (CCRF-CEM [5]) was 256 nM and the GI50 (SW-620) was 637 nM. For the same compound, the GI50 (HL-60(TB)) was 170 nM, the activity at 10 µM (MDA-MB-435 [6]) was -73.7% and the GI50 (Breast Cancer panel; read-out: Mean GI50) was 310 nM. It also gave a GI50 (T-47D) of 302 nM, a GI50 (HOP-92) of 172 nM and a GI50 (HCC-2998) of 325 nM. The GI50 (TK-10) was 1940 nM, the GI50 (NCI-H522) was 339 nM and the activity at 10 µM (HT29) was -57.8%. For the same compound, the GI50 (COLO 205 [7]) was 179 nM, the activity at 10 µM (DU-145) was 1.94% and the activity at 10 µM (ACHN [8]) was 0.6%. The GI50 (SF-295) was 1830 nM, the activity at 10 µM (NCI-H460) was -26.9% and the GI50 (SF-268 [9]) was 372 nM. The activity at 10 µM (COLO 205 [10]) was -90.7%, the GI50 (SN12C) was 325 nM and the GI50 (MDA-MB-435 [11]) was 299 nM. It also gave a GI50 (A498) of 2650 nM, a GI50 (EKVX [12]) of 1220 nM and a GI50 (OVCAR-3) of 297 nM. For the same compound, the GI50 (IGROV1 [13]) was 510 nM, the GI50 (OVCAR-4) was 540 nM and the GI50 (RPMI-8226) was 106 nM. The GI50 (MALME-3M [14]) was 295 nM, the activity at 10 µM (SF-268 [15]) was -76.1% and the activity at 10 µM (NCI-H23) was -57.8%. It also gave an activity at 10 µM (IGROV1 [16]) of -43.2% and an activity at 10 µM (EKVX [17]) of -8.21%.
